The text below walks through data of patent publication US4098891A, “Certain s-triazines as lipogenesis inhibitors” (Shell Oil Company, priority 1977, dated 1978).

The test system of one series is swine. The series can be described thus: In vivo test in young, growing pigs fed Compound 1; lipogenesis in adipose tissue biopsy slices. The following applies: in feed, approximately 50 mg/kg body weight per day for seven days. The protocol:
The effect of compound 1 on inhibition of lipogenesis in swine was confirmed by an in vivo test in which Compound 1 was included in the feed given to young, growing pigs for seven days, at a dosage of approximately 50 milligrams of Compound 1 per kilogram of the pig's body weight per day. Adipose tissue biopsy samples were taken at days 0, 6, 7 and 13 (one week off the drug) and the effect of the test compound on lipogenesis was determined using tissue slices prepared from the biopsy samples, by the procedure used in the in vitro tests.

A further series concerns swine adipose tissue. Nature of the series: Inhibition of lipogenesis (lipid synthesis from glucose-U-14C) in slices of swine adipose tissue in vitro. The class given is cell-based. The following applies: Sus scrofa, 100 micrograms per milliliter, 2 hours at 37° C, 5% DMSO, read-out: Percent Inhibition of lipogenesis (lipid synthesis) compared to control. From the text:
The manner in which they cause this effect is not known with certainty; it is believed that they interfere with the synthesis of fatty acids in the tissues. Their effectiveness for this purpose has been ascertained in one series of tests by immersing samples of swine adipose tissue in a liquid medium containing radioactive glucose and the test chemical, for a period of time, then isolating the lipid from the treated tissue and determining the up-take of the radioactive carbon by means of scintillation counting techniques. These tests were conducted in swine adipose tissue because in swine, the primary site of lipogenesis--i.e., fatty acid synthesis--appears to be adipose tissue.
Described in more detail, the tests were conducted according to the following general procedure:
150 Milligrams of slices of swine adipose tissue were incubated at 37° C for 2 hours with shaking in 3 milliliters of Krebs-Ringer bicarbonate solution containing one half the normal calcium ion concentration, 60 micromoles of glucose, 0.5 micro-Curie of glucose-U^14 C, 300 microunits of insulin, and 5% dimethyl sulfoxide (DMSO). The test compounds were added as suspensions or solutions in DMSO and were present at a concentration of 100 micrograms per milliliter of the incubation mixture.
The incubation was terminated by addition of 0.25 milliliter of 1 N sulfuric acid. The resulting mixture was extracted with a total of 25 milliliters of chloroform:methanol (2:1, v/v). The extracts were washed according to Folch et al. (J. Biol. Chem., 226, 497-509, (1957)), air dried, and counted in a liquid scintillation counter with 15 milliliters of counting fluid (two parts toluene containing 0.4% w/v New England Nuclear Omnifluor; 1 part Triton X-100. The tests were conducted in triplicate and were accompanied by control tests in which all ingredients,proportions and conditions were the same except that no test compound was included. From the data obtained were calculated the percent inhibition of lipid synthesis by the test compound in each case. The data obtained from the tests are set out in Table 1, as the percent inhibition of lipogenesis compared to the results obtained in the control tests wherein only the test compound was omitted.

The test system of a further series is rats. The series can be described thus: Rats fed Compound 1 in the diet; lipogenesis by weighing fat pads. The class given is in vivo. To be noted: Compound 1 in diet, compared to control rats.
Series [1] relates to whole epididymal fat pads. Nature of the series: Inhibition of incorporation of acetate-1-14C into long chain fatty acids in rat epididymal fat pads. The following applies: for inhibition at 100 µM: 1 h, 10^-4 M, 60 minutes, acetate-1-14C, read-out: Percent Inhibition of incorporation of acetate into long chain fatty acids. Type of series: cell-based, Sprague-Dawley rats. As to the method: The effect of Compounds 1, 15, 19, 20, 21, 22 and 33 on rats was determined by a modification of the method of D. D. Feller, J. Biol. Chem., 206, 171 (1954): whole epididymal fat pads from 110-150 gram Sprague-Dawley rats were incubated in 4 milliliters of Krebs-Ringer bicarbonate buffer for 30 minutes in an atmosphere of 95% O2 -5% CO2. At the end of the 30 minute period 1 milliliter of Krebs-Ringer bicarbonate buffer containing 8.2 micromoles of acetate (0.1 microcuries of acetate-1-^14 C), 55.0 micromoles of glucose and 50.0 micromoles of succinic acid was added to the incubating mixture and the incubation was continued for 60 minutes more. Test compounds were dissolved in dimethyl sulfoxide (DMSO) and added to the incubating mixture with the fat pad. […] The concentration of the test compound in the liquid medium was 10^-4 M. The incubation was carried out with paired fat pads; the contralateral fat pad from the same rat served as the untreated control.
After incubation, the fat pads were washed in two 5 milliliter aliquots of normal saline and extracted twice with 20 milliliters of chloroform:methanol (2:1) by vigorous shaking for 60 minutes. The extracts were combined and brought to volume with fresh organic solvent in a 50 milliliter volumetric flask containing 1 milliliter of 3N hydrochloric acid. A 5 milliliter aliquot of this mixture was transferred into a 20 milliliter scintillator vial and evaporated to dryness (50° C) to remove traces of acetic acid. To the vials were added 17 ml of scintillator solution consisting of 0.3% diphenyloxazole and 0.01% of 1,4-bis(2,5-phenyloxazolyl)benzene in a solvent of 23% ethanol in toluene. Radioactivity was measured by liquid scintillation counting.
Table II indicates the percent inhibition of incorporation of the acetate into long chain fatty acids--a measure of inhibition of lipogenesis.

Take `OCCNc1nc(N2CCOCC2)nc(C(Cl)(Cl)Cl)n1` [Compound 1]: the symptom of toxicity entry in the series on swine is “No symptom of toxicity due to the test compound was noted”. The “effect on lipogenesis in adipose tissue biopsy samples” value in the series on swine (day 13 (one week off the drug)) was “significantly reduced lipogenesis”. For the same molecule, the inhibition at 100 µg/mL in the series on swine adipose tissue was determined as 63%. In addition, in the series with rats, the “inhibition of lipogenesis, by weighing fat pads on sacrifice” value is reported as “lipogenesis had been inhibited to a significant extent”. Besides, the inhibition at 100 µM in series [1] was 57%. Turning to `OCCCNc1nc(N2CCOCC2)nc(C(Cl)(Cl)Cl)n1` [Compound 2], in the series with swine adipose tissue, the inhibition at 100 µg/mL worked out at 59%. Regarding `CC(=O)OCCNc1nc(N2CCOCC2)nc(C(Cl)(Cl)Cl)n1` [Compound 3], the inhibition at 100 µg/mL in the series with swine adipose tissue stood at 33%.

As to `CC(O)CNc1nc(N2CCOCC2)nc(C(Cl)(Cl)Cl)n1` (stereo not shown) [Compound 4], the inhibition at 100 µg/mL with swine adipose tissue came out at 44%.

As for `COCCCNc1nc(NCCO)nc(C(Cl)(Cl)Cl)n1` [Compound 5], in the series on swine adipose tissue, the inhibition at 100 µg/mL stood at 44%. Same read-out and setting: the same measure for `CC(C)OCCCNc1nc(N(CCO)CCO)nc(C(Cl)(Cl)Cl)n1` [Compound 6]: 62%; for `CN(CCO)c1nc(N2CCOCC2)nc(C(Cl)(Cl)Cl)n1` [Compound 7]: 32%. Same read-out and setting: with `CN(CCO)c1nc(NCCO)nc(C(Cl)(Cl)Cl)n1` [Compound 8] the figure was 58%; with `CN(C)C(=O)OCCNc1nc(N2CCOCC2)nc(C(Cl)(Cl)Cl)n1` [Compound 9], 65%; with `COC(=O)CCC(=O)OCCNc1nc(N2CCOCC2)nc(C(Cl)(Cl)Cl)n1` [Compound 10], 43%. On the same count and under the same terms, the same measure for `CC(=O)N1CCN(c2nc(NCC(C)O)nc(C(Cl)(Cl)Cl)n2)CC1` (stereo not shown) [Compound 11]: 72%; for `CC(O)CNc1nc(N2CCN(C(=O)Nc3ccccc3)CC2)nc(C(Cl)(Cl)Cl)n1` (stereo not shown) [Compound 12]: 29%. For the molecule `CC(O)CNc1nc(N2CCN(C(=O)CCC(=O)O)CC2)nc(C(Cl)(Cl)Cl)n1` (stereo not shown) [Compound 13], the inhibition at 100 µg/mL in the series with swine adipose tissue came out at 21%. For the same molecule, the “inhibition of acetate incorporation (in words)” value in series [1] (same procedure as Table II) is “not to inhibit acetate incorporation”. Turning to `CC(=O)NCCNc1nc(N2CCOCC2)nc(C(Cl)(Cl)Cl)n1` [Compound 14], the inhibition at 100 µg/mL with swine adipose tissue was 66%. In the case of `O=C(O)CCNc1nc(N2CCOCC2)nc(C(Cl)(Cl)Cl)n1` [Compound 15], the inhibition at 100 µg/mL in the series on swine adipose tissue was 44%. In addition, the inhibition at 100 µM in series [1] stood at 29%. With `CCNc1nc(NCCC(=O)N2CCOCC2)nc(C(Cl)(Cl)Cl)n1` [Compound 16], in the series with swine adipose tissue, the inhibition at 100 µg/mL stood at 38%. Same read-out and setting: with `CC(C)(CO)Nc1nc(NCCCN2CCOCC2)nc(C(Cl)(Cl)Cl)n1` [Compound 17] the figure was 43%.

For the molecule `OCCNc1nc(N2CCCC2)nc(C(Cl)(Cl)Cl)n1` [Compound 18], the inhibition at 100 µg/mL in the series on swine adipose tissue is 63%. As to `O=C(NCCO)N1CCN(c2nc(NCCO)nc(C(Cl)(Cl)Cl)n2)CC1` [Compound 19], the inhibition at 100 µg/mL in the series with swine adipose tissue is 75%. For the same molecule, the inhibition at 100 µM in series [1] was found to be 44%. The like results for `CN1CCN(c2nc(NCCO)nc(C(Cl)(Cl)Cl)n2)CC1` [Compound 20] were, in that order, 27% and 56%. Regarding `OCCNc1nc(N2CCNCC2)nc(C(Cl)(Cl)Cl)n1` [Compound 21], the inhibition at 100 µM in series [1] turned out to be 65%. On the same count and under the same terms, the same measure for `CC(O)CNc1nc(N2CCNCC2)nc(C(Cl)(Cl)Cl)n1` (stereo not shown) [Compound 22]: 30%; for `CCNc1nc(N2CCCCC2)nc(C(Cl)(Cl)Cl)n1` [Compound 33]: 31%.
